# Data as given in patent publication US8613928B2, “Immunizing composition and method for inducing an immune response against the β-secretase cleavage site of amyloid precursor protein” (Ramot at Tel-Aviv University Ltd., priority 2002, dated 2013).
# No end group written: not given here.
# How the values were obtained:
# [1] = tested on: serum antibody raised against f88-EFRH; settings: ELISA, read-out: IC50, competitive inhibition, MICE SERUM; cited from earlier work
# [2] = tested on: amyloid anti-aggregating antibody; settings: Frenkel et al. 1998, ELISA, read-out: IC50, competitive inhibition, anti-aggregating antibody*; cited from earlier work
# Balb/c mice = experiment: Immunization of Balb/c mice with MAP conjugated peptides, IgG titer by ELISA; assay type: in vivo; settings: injection every two weeks with Freund's adjuvant, compared among 3 MAP peptides, FIG. 3
# Description: 3 groups of Balb/c mice were injected with 3 different MAP (octa-branched) conjugated peptides: ISEVKMDA (residues 1-8 of SEQ ID NO:1, where residue 6 is Met), VKMDAEFRH (SEQ ID NO:5) and ISEVKLDA (residues 1-8 of SEQ ID NO:1, where residue 6 is Leu). The stock solution (2 mg/ml) was prepared as follows: 1000 μl of double distilled water (DDW), 665 μl of Freund's adjuvant (Complete Freund's adjuvant on first injection and Incomplete Freund's adjuvant on subsequent injections) and 335 μl of peptide stock solution. 300 μl of the vaccination solution (immunizing composition) was injected into each mouse every two weeks after initial injection.
# 96-well ELISA. plates were coated with 50 μl/well peptide stock solution at dilution of 1:500 in coating buffer (0.1M Na2CO3, pH 9.6) and incubated overnight at 4° C. The plates were washed with 2×PBS (0.05% TWEEN) and 2×PBS, blocked with 3% milk/PBS 180 μl/well and incubated for 1.5 hr at 37° C. Serum dilutions in 1% milk/PBS 50 μl/well were incubated for 1 hr at 37° C., then washed again with 50 μl/well α-mouse-IgG (H+L)HRP conjugated with dilution of 1:5000 in 1% milk/PBS incubated for 1 hr at 37° C. Additional washings contained PBS (0.05% TWEEN) and finally PBS. Reaction was done with 50 μl/well of 15 ml 0.05M citrate buffer with 30 mg OPD and 5 μl of 30% H2O2. […]
Substance,IC50 [1] [µM],IC50 [2] [µM],immune response after immunization (Balb/c mice)
Aβ(1-40): full length Aβ-peptide (1-40),3,0.8,
"FRH (Amyloid-beta protein 40; UniProt P05067 675-677, looked up, fragment) [residues 4-6 of Aβ]",~1000,3000,
DAEFRHD [residues 1-7 of Aβ],5,0.9,
EFRH [residues 3-6 of Aβ],6,3,
"MAP-ISEVKLDA: octavalent multiple antigenic peptide with ISEVKLDA (residues 1-8 of SEQ ID NO:1, residue 6 Leu), Swedish mutation β-secretase cleavage site epitope (also: octavalent multiple antigenic peptide on MAP core; listed as Homo sapiens)",,,highest immune response
DAEFRH [residues 1-6 of Aβ],3,0.8,
DAEFRHDSG [residues 1-9 of Aβ],5,1,
